According to ChEMBL document CHEMBL5604062, “ASAP - ZIKV NS2B-NS3 protease fluorescence dose response” (2024):
pIC50: −log10 of the molar value. Where “and” joins values, the source holds several entries; their conditions need not be identical. Identical values can stand only once.

What was measured:
Nonstructural protein 3 [1] = target: T1, Nonstructural protein 3 (Zika virus, UniProt A0A024AXB9); test: (§1) Functional biochemical assay to identify treatments for viral infectious disease that targets Zika NS2B-NS3 protease. Utilizing a direct enzyme activity measurement method, reading the fluorescence intensity is used to characterize the relative potency of inhibitors as IC50. Synthetic construct has been made based on Zika virus (strain PRVABC59) by Centre for Medicines Discovery, University of Oxford, and the assay has been performed by Stanford University.The protocol is publicly available: dx.doi.org/10.17504/protocols.io.x54v9r83zv3e/v1
T1 sequence (A0A024AXB9 whole entry): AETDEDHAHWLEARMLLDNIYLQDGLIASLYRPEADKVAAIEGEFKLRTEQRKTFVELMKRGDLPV

Nonstructural protein 3 [2] = target: T1, Nonstructural protein 3; test: as §1, with “Enamine biological services, Bienta Ltd.The” for “Stanford University.The”, “dx.doi.org/10.17504/protocols.io.36wgqn273gk5/v1” for “dx.doi.org/10.17504/protocols.io.x54v9r83zv3e/v1”
Nonstructural protein 3 [3] = target: T1, Nonstructural protein 3; test: Functional biochemical assay to identify treatments for viral infectious disease that targets Zika NS2B-NS3 protease. Utilizing a direct enzyme activity measurement method, reading the fluorescence intensity is used to characterize the relative potency of inhibitors as IC50.; set-up: species or system PRVABC59

| Structure (SMILES) | pIC50 (Nonstructural protein 3 [1]) | pIC50 (Nonstructural protein 3 [2]) | pIC50 (Nonstructural protein 3 [3]) |
| --- | --- | --- | --- |
| O=Cc1ccc(N2CCCCCC2)cc1 | 4.18 | – | – |
| O=Cc1ccc(N2CCCCC2)cc1 | 4.30 | – | – |
| CN(C)c1ccc(C=C(C#N)C(N)=O)cc1 | 4.51 | – | – |
| Cc1nc(C=O)c2ccccn12 | 4.19 | – | – |
| O=Cc1ccc(N2CCC(C(=O)O)CC2)cc1 | 4.27 | – | – |
| Cc1cc(NS(=O)(=O)c2ccc(S(=O)(=O)F)cc2)c[nH]c1=O | 4.88 | – | – |
| O=Cc1ccc(N2CCC(C(=O)O)CC2)o1 | 4.52 | – | – |
| CC[C@H]1CO[C@H](C)CN1c1ccc(C=O)cn1 | 4.37 | – | – |
| Nc1ccc2ccc(B(O)O)cc2c1 | 5.60 | – | < 4.00 |
| Cc1c(C=O)c2ccccn2c1C#N | 4.60 | – | – |

The next lines start with the values.

| pIC50 (Nonstructural protein 3 [1]) | pIC50 (Nonstructural protein 3 [2]) | pIC50 (Nonstructural protein 3 [3]) | Structure (SMILES) |
| --- | --- | --- | --- |
| 4.33 | – | – | O=Cc1nc(-c2ccccc2Cl)n2ccccc12 |
| 4.44 | – | – | Cc1c(C=O)c2ccccn2c1C(=O)c1ccncc1 |
| – | < 4.60 | < 4.60 | Clc1cc(CNc2ncc3c(n2)CNC3)c2cn[nH]c2c1 |
| – | 7.28 and 7.12 | 7.80 | O=C(NCC(F)F)[C@H](Nc1ccc2c(c1)CNC2)c1cc(Cl)cc2cccnc12 |
| – | 5.65 and 5.77 | 6.19 | CS(=O)(=O)NC(=O)C[C@H]1NCc2cc(NC(=O)c3cc(Cl)cc4[nH]ncc34)ccc21 |
| – | 5.97 and 6.01 | 6.78 | CC(C)(C)NC(=O)C[C@H]1NCc2cc(NC(=O)c3cc(Cl)cc4[nH]ncc34)ccc21 |
| – | < 4.60 | < 4.60 | N#Cc1cccc(-c2nc3c(C(=O)Nc4ccc(F)cc4)cc(Cl)cc3[nH]2)c1 |
| – | 4.67 | 5.32 | COC(=O)[C@H]1NCc2cc(NC(=O)c3cc(F)cc4[nH]ncc34)ccc21 |
| – | 5.26 | 5.88 | O=C(NCC(F)F)[C@H](Nc1ccc2c(n1)CNC2)c1cc(Cl)cc(C2CC2)c1 |
